The values below come from patent US5811271A, “Process for producing L-ketohexose” (Kabushiki Kaisha Hayashibara Seibutsu Kagaku Kenkyujo, priority 1994, dated 1998).

SMILES strings stand for the structures.

The target of this test is T1, D-ketohexose 3-epimerase (Pseudomonas cichorii, UniProt O50580).
T1 construct: The cells which had been recovered from 80 liters of the resultant culture were crushed by grinding; made in house; host or cells: Pseudomonas cichorii ST-24 (FERM BP-2736), the natural producer; not recombinant
Kind of test: Relative enzyme activity of purified D-ketohexose 3-epimerase on L-ketohexose substrates. Type of test: biochemical, Pseudomonas cichorii ST-24. The note with it: substrate in 0.1 M solution (pH 7.5), 11 units/g substrate of enzyme, 30° C., 24 hours; D-tagatose as control regarded as 100. The protocol:
D-Ketohexose 3-epimerase was studied for relative enzyme activity on various L-ketohexoses. A purified D-ketohexose 3-epimerase obtained by the method in Example 1 was allowed to act on four different types of L-ketohexoses as substrates, i.e. L-psicose, L-fructose, L-sorbose and L-tagatose, to determine the enzyme activity on them. The reaction conditions were as follows: To either substrate in 0.1 M solution (pH 7.5) was added 11 units/g substrate of the enzyme and reacted at 30° C. for 24 hours. As a control, D-tagatose was used as substrate and the relative enzyme activity was regarded as 100.
The enzyme specimen thus obtained was assayed as follows: The reaction solution used in this assay consisted of 100 microliters of 50 mM Tris-HCl buffer (pH 7.5), 50 microliters 40 mM D-tagatose and 50 microliters of an enzyme solution. The enzymatic reaction was carried out at 30° C. for 60 minutes, and the formed D-sorbose was quantified on HPLC. One unit activity of the enzyme was defined as the amount of enzyme that epimerizes one micromol of D-tagatose into D-sorbose per minute.
On to `O=C(CO)[C@@H](O)[C@@H](O)[C@H](O)CO` [D-Tagatose, reference compound], for which the Relative enzyme activity was determined as 100.

`O=C(CO)[C@@H](O)[C@H](O)[C@@H](O)CO` [L-Sorbose]: the Relative enzyme activity result is “about 2”.

As to `O=C(CO)[C@H](O)[C@@H](O)[C@@H](O)CO` [L-Fructose], the Relative enzyme activity result is given as “about 5”.

As for `O=C(CO)[C@H](O)[C@H](O)[C@@H](O)CO` [L-Tagatose], the Relative enzyme activity result is “about 0.5”.

Consider `O=C(CO)[C@@H](O)[C@@H](O)[C@@H](O)CO` [L-Psicose], for which the Relative enzyme activity entry is given as “about 20”.
